Laboratory results reported in patent publication US5013549A, “Production, isolation, and identification of novel antifungal compounds” (priority 1990, dated 1991).
In brackets after ≈: the same amount, converted by molar mass. Entries after “also recorded” stand apart in the source; their conditions may differ. Where two headings read alike, the source gives them in different places.

What was measured:
[1] = tested on: murine tumors; conditions: more active than adriamycin; cited from earlier work
[2] = tested on: fungi; conditions: known related compounds; cited from earlier work
[3] = cited from earlier work
[4] = tested on: Aspergillus fumigatus; assay: Minimum inhibitory concentration, Aspergillus fumigatus; type: cell-based
Experimental: (§1) Known amounts of the purified substance were dissolved in DMSO and serial dilutions prepared in the same solvent. A 20 ul volume of each dilution was placed on the surface of Emmon's agar in petri-dishes seeded with various test strains of pathogenic and saprophytic fungi. The antibacterial activity was monitored using Muller-Hilton agar. The minimum inhibitory concentration (MIC) was determined by incorporating known amount of the DMSO dissolved purified substance into Emmon's liquid medium (same as stated earlier but devoid of agar) contained in test tubes. The tubes were inoculated with ca 2×10^3 CFU of the test organisms. The inoculated tubes were incubated at 26° C. and the results recorded after two to 5 days depending upon the growth pattern of the test organisms (certain fungi grow faster than others). Tubes inoculated in an identical manner but devoid of the active substance served as controls.

[5] = tested on: A. niger; assay: Minimum inhibitory concentration, A. niger; type: cell-based; conditions: Aspergillus niger; 26° C., 2 to 5 days, Emmon's liquid medium; fungus
Experimental: as §1

[6] = tested on: A. flavus; assay: Minimum inhibitory concentration, A. flavus; type: cell-based; conditions: Aspergillus flavus; 26° C., 2 to 5 days, Emmon's liquid medium; fungus
Experimental: as §1

[7] = tested on: Penicillium species; assay: Minimum inhibitory concentration, Penicillium species; type: cell-based; conditions: 26° C., 2 to 5 days, Emmon's liquid medium, fungus
Experimental: as §1

[8] = tested on: Cladosporium species; assay: Minimum inhibitory concentration, Cladosporium species; type: cell-based; conditions: 26° C., 2 to 5 days, Emmon's liquid medium, fungus
Experimental: as §1

[9] = tested on: Candida albicans; assay: Minimum inhibitory concentration, Candida albicans; type: cell-based; conditions: 26° C., 2 to 5 days, Emmon's liquid medium, fungus
Experimental: as §1

[10] = tested on: C. quilliermondii; assay: Minimum inhibitory concentration, C. quilliermondii; type: cell-based
Experimental: as §1

[11] = tested on: Cryptococcus neoformans-N-2; assay: Minimum inhibitory concentration, Cryptococcus neoformans-N-2; type: cell-based; conditions: N = encapsulated, mucoid strain with neurotropic tendencies, 26° C., 2 to 5 days
Experimental: as §1

[12] = tested on: C. neoformans- N-3; assay: Minimum inhibitory concentration, C. neoformans- N-3; type: cell-based; conditions: Cryptococcus neoformans; N = encapsulated, mucoid strain with neurotropic tendencies; 26° C., 2 to 5 days
Experimental: as §1

[13] = tested on: C. neoformans- G-3; assay: Minimum inhibitory concentration, C. neoformans- G-3; type: cell-based; conditions: Cryptococcus neoformans
Experimental: as §1

[14] = tested on: C. neoformans serotype-C; assay: Minimum inhibitory concentration, C. neoformans serotype-C; type: cell-based; conditions: Cryptococcus neoformans
Experimental: as §1

[15] = tested on: C.neoformans serotype-D; assay: Minimum inhibitory concentration, C.neoformans serotype-D; type: cell-based; conditions: Cryptococcus neoformans, 26° C., 2 to 5 days
Experimental: as §1

[16] = tested on: Rhodotorula rubra; assay: Minimum inhibitory concentration, Rhodotorula rubra; type: cell-based
Experimental: as §1

[17] = tested on: R. glutinis; assay: Minimum inhibitory concentration, R. glutinis; type: cell-based; conditions: Rhodotorula glutinis
Experimental: as §1

[18] = tested on: Citrobacter species; assay: Minimum inhibitory concentration, Citrobacter species; type: cell-based; conditions: bacterial strain
Experimental: as §1

[19] = tested on: Pseudomonas aeruginosa; assay: Minimum inhibitory concentration, Pseudomonas aeruginosa; type: cell-based; conditions: bacterial strain
Experimental: as §1

[20] = tested on: Plebsiella pneumoniae; assay: Minimum inhibitory concentration, Plebsiella pneumoniae; type: cell-based
Experimental: as §1

[21] = tested on: Escherichia coli; assay: Minimum inhibitory concentration, Escherichia coli; type: cell-based; conditions: bacterial strain
Experimental: as §1

[22] = tested on: Staphylococcus aureus ATCC 29213; assay: Minimum inhibitory concentration, Staphylococcus aureus ATCC 29213; type: cell-based; conditions: bacterial strain ATCC 29213
Experimental: as §1

[23] = tested on: S. aureus ATCC 25923; assay: Minimum inhibitory concentration, S. aureus ATCC 25923; type: cell-based, Staphylococcus aureus; conditions: bacterial strain ATCC 25923
Experimental: as §1

[24] = tested on: S. aureus (multiple drug resistant); assay: Minimum inhibitory concentration, S. aureus (multiple drug resistant); type: cell-based, Staphylococcus aureus; conditions: bacterial strain
Experimental: as §1

[25] = Solubility; type: physicochemical
[26] = Stability in 2N HCl; type: physicochemical

For `CCN[C@H]1CO[C@@H](O[C@H]2[C@H](O[C@H]3C#C/C=C\C#C[C@]4(O)CC(=O)C(NC(=O)OC)=C3/C4=C\CSSSC)O[C@H](C)[C@@H](NO[C@H]3C[C@H](O)[C@H](SC(=O)c4c(C)c(I)c(O[C@@H]5O[C@@H](C)[C@H](O)[C@@H](OC)[C@H]5O)c(OC)c4OC)[C@@H](C)O3)[C@@H]2O)C[C@@H]1OC` [Calicheamicin], the “activity relative to adriamycin against murine tumors” value [1] is listed as “approximately 1000 -fold”.
For `CC[C@@]1(O)C[C@H](O[C@H]2C[C@H](N(C)C)[C@H](O[C@H]3C[C@@H]4O[C@H]5CC(=O)[C@H](C)O[C@H]5O[C@@H]4[C@H](C)O3)[C@H](C)O2)c2c(cc3c(c2O)C(=O)c2c(O)ccc(O)c2C3=O)[C@H]1C(=O)OC` [cinerubin B], the antifungal properties [2] is listed as “not significantly antifungal”, the “solubility of known cinerubins” value ([3]; in ethanol) is listed as “soluble” and the “solubility of known cinerubins” value ([3]; in methanol) is listed as “soluble”.
For `CCC1(O)CC(OC2CC(N(C)C)C(OC3CC(O)C(OC4CCC(=O)C(C)O4)C(C)O3)C(C)O2)c2c(cc3c(c2O)C(=O)c2c(O)ccc(O)c2C3=O)C1C(=O)OC` (stereo not drawn) [spartanamicin B], the MIC [4] was 0.4 µg/mL (≈ 0.483 µM), the MIC [5] was 0.6 µg/mL (≈ 0.725 µM) and the MIC [6] was 0.6 µg/mL (≈ 0.725 µM). The MIC [7] was 0.2 µg/mL (≈ 0.242 µM), the MIC [8] was 0.4 µg/mL (≈ 0.483 µM) and the MIC [9] was 0.2 µg/mL (≈ 0.242 µM). The MIC [10] was 0.8 µg/mL (≈ 0.966 µM), the MIC [11] was 0.8 µg/mL (≈ 0.966 µM) and the MIC [12] was 0.6 µg/mL (≈ 0.725 µM). For the same molecule, the MIC [13] was 1 µg/mL (≈ 1.21 µM), the MIC [14] was 0.8 µg/mL (≈ 0.966 µM) and the MIC [15] was 0.8 µg/mL (≈ 0.966 µM). For the same molecule, the MIC [16] was 0.8 µg/mL (≈ 0.966 µM), the MIC [17] was 0.4 µg/mL (≈ 0.483 µM) and the MIC [18] was “not active”. The MIC [19] was 100 µg/mL (≈ 121 µM), the MIC [20] was 100 µg/mL (≈ 121 µM) and the MIC [21] was “not active”. For the same molecule, the MIC [22] was 0.8 µg/mL (≈ 0.966 µM), the MIC [23] was 0.8 µg/mL (≈ 0.966 µM) and the MIC [24] was “not active”. For the same molecule, the Solubility ([25]; in 1-butanol) was “Sparingly soluble”, the Solubility ([25]; in 2N HCl) was “Insoluble” and the Solubility ([25]; in N,N-dimethyl formamide (DMF)) was “Soluble”. The Solubility ([25]; in acetone) was “Soluble”, the Solubility ([25]; in acetonitrile) was “Sparingly soluble” and the Solubility ([25]; in carbon tetrachloride) was “Soluble”. For the same molecule, the Solubility ([25]; in chloroform) was “Soluble”, the Solubility ([25]; in cyclohexane) was “Insoluble” and the Solubility ([25]; in dimethyl sulfoxide (DMSO)) was “Soluble”. The Solubility ([25]; in ethanol) was “not soluble; also recorded: Sparingly soluble”, the Solubility ([25]; in ethyl acetate) was “Soluble” and the Solubility ([25]; in glacial acetic acid) was “Soluble”. For the same molecule, the Solubility ([25]; in hexane) was “Insoluble”, the Solubility ([25]; in methanol) was “not soluble; also recorded: Sparingly soluble” and the Solubility ([25]; in toluene) was “Soluble”. The Solubility ([25]; in water) was “Insoluble” and the “stability upon standing in 2N HCl” value [26] was “hydrolyses”.
For `CCC1(O)CC(OC2CC(N(C)C)C(OC3CC(O)C(OC4CCC(=O)C(C)O4)C(C)O3)C(C)O2)c2c(cc3c(c2O)C(=O)c2c(O)ccc(O)c2C3=O)C1C(=O)OC` (stereo not drawn) [cinerubin A], the antifungal properties [2] is listed as “not significantly antifungal”, the “solubility of known cinerubins” value ([3]; in ethanol) is listed as “soluble” and the “solubility of known cinerubins” value ([3]; in methanol) is listed as “soluble”.
